Data as given in patent US9926294B2, “Pesticidally active heterocyclic derivatives with sulphur containing substituents” (Syngenta Participations AG, priority 2014, dated 2018).

Experiments:
Format in all cases: in vivo
[1] = test system: Myzus persicae (green peach aphid); assay: Example B5: Myzus persicae feeding/residual contact, preventive, mixed population (sunflower leaf discs); conditions: foliar, 144 h, mixed population on sprayed sunflower leaf discs, 6 DAT, read-out: activity (mortality, special effects)
Method: Example B5: Activity Against Myzus persicae (Green Peach Aphid)
(Feeding/Residual Contact Activity, Preventive), Mixed Population
(§1) Sunflower leaf discs were placed on agar in a 24-well microtiter plate and sprayed with test solutions. After drying, the leaf discs were infested with an aphid population of mixed ages. After an incubation period of 6 DAT, samples were checked for mortality and special effects (e.g. phytotoxicity).

[2] = test system: Myzus persicae (green peach aphid); assay: Example B7: Myzus persicae systemic/feeding activity, curative, mixed population (pea seedlings); conditions: 144 h, roots of infested pea seedlings in test solution, 6 days after introduction, read-out: activity (mortality, special effects on the plant)
Text: Example B7: Activity Against Myzus persicae (Green Peach Aphid)
(Systemic/Feeding Activity, Curative), Mixed Population
Roots of pea seedlings, infested with an aphid population of mixed ages, were placed directly in the test solutions. 6 days after introduction, samples were checked for mortality and special effects on the plant.

[3] = test system: Bemisia tabaci (cotton white fly); assay: Example B9: Bemisia tabaci adulticide contact activity, preventative; conditions: foliar, 168 h, adult white flies on sprayed cotton leaf discs, 7 DAT, read-out: activity (mortality, special effects)
Method: Example B9: Activity Against Bemisia tabaci (Cotton White Fly)
(Adulticide Contact Activity, Preventative), Adult
Cotton leaf discs were placed on agar in a 24-well microtiter plate and sprayed with test solutions. After drying, the leaf discs were infested with adult white flies. After an incubation period of 7 DAT, samples were checked for mortality and special effects (e.g. phytotoxicity).

[4] = test system: Spodoptera littoralis (Egyptian cotton leaf worm); assay: Example B1: Spodoptera littoralis larvicide, feeding/residual contact, preventive (cotton leaf discs); conditions: foliar, 72 h, L1 larvae on sprayed cotton leaf discs, 3 days after treatment, read-out: activity (mortality, repellent effect, feeding behaviour, growth regulation)
Text: Example B1: Activity Against Spodoptera littoralis (Egyptian Cotton Leaf Worm)
Larvicide, Feeding/Residual Contact Activity, Preventive
Cotton leaf discs were placed on agar in a 24-well microtiter plate and sprayed with test solutions.
After drying, the leaf discs were infested with 5 L1 larvae. The samples were checked for mortality, repellent effect, feeding behaviour, and growth regulation 3 days after treatment (DAT).

[5] = test system: Diabrotica balteata (corn root worm); assay: Example B4: Diabrotica balteata larvae L2 on maize sprouts, feeding/contact, preventative; conditions: 120 h, L2 larvae on sprayed maize sprouts, 5 days incubation, read-out: activity (larval mortality, growth regulation)
Method: Example B4: Activity Against Diabrotica Balteata (Corn Root Worm)
(Larvae L2 on Maize Sprouts, Feeding/Contact, Preventative)
Maize sprouts, placed on an agar layer in 24 well micro titer plates were treated with test solutions by spraying. After drying, the MTPs were infested with L2 larvae (6-10 per well). After an incubation period of 5 days, samples were checked for larval mortality and growth regulation.

[6] = test system: Myzus persicae (green peach aphid); assay: Example B6: Myzus persicae feeding activity sachet test, mixed population; conditions: 120 h, sachet test in sucrose solution, 5 days after infestation
Text: Example B6: Activity Against Myzus persicae (Green Peach Aphid)
(Feeding Activity Sachet Test), Mixed Population
Test compounds were applied by pipette into 24 well plates and mixed with Sucrose solution. The plates were closed with a stretched Parafilm. A plastic stencil with 24 holes is placed onto the plate and infested pea seedlings were placed directly on the Parafilm. The infested plate is closed with a gel blotting paper and another plastic stencil and then turned upside down. 5 days after infestation the samples were checked on mortality. Application rate: 12.5 ppm.

[7] = test system: Plutella xylostella (diamond back moth); assay: Example B3: Plutella xylostella larvicide, feeding/residual contact, preventive (artificial diet); conditions: 120 h, L2 larvae on artificial diet, 5 days incubation, read-out: activity (larval mortality, antifeedant, growth regulation)
Method: Example B3: Activity Against Plutella xylostella (Diamond Back Moth)
(Larvicide, Feeding/Residual Contact Activity, Preventive)
24-well microtiter plate (MTP) with artificial diet was treated with test solutions by pipetting. After drying, the MTPs were infested with L2 larvae (10-15 per well). After an incubation period of 5 days, samples were checked for larval mortality, antifeedant and growth regulation.

[8] = test system: Spodoptera littoralis (Egyptian cotton leaf worm); assay: Example B2: Spodoptera littoralis systemic activity (lettuce on agar); conditions: 120 h, systemic via lettuce roots, 5 days after infestation, read-out: activity (mortality, repellent effect, feeding behavior, growth regulation)
Text: Example B2: Activity Against Spodoptera littoralis (Egyptian Cotton Leaf Worm)
Test compounds were applied by pipette into 24 well plates and mixed with agar. Lettuce seeds were placed on the agar and the multi well plate is closed by another plate which contains also agar. After 7 days the roots have absorbed the compound and the lettuce has grown into the lid plate. The lettuce leaves were now cut off into the lid plate. Spodoptera eggs were pipetted through a plastic stencil on a humid gel blotting paper and the plate closed with it. The samples are checked for mortality, repellent effect, feeding behavior, and growth regulation 5 days after infestation.

[9] = test system: Thrips tabaci (onion thrips); assay: Example B8: Thrips tabaci mixed population, feeding/residual contact, preventive; conditions: foliar, 168 h, mixed population on sprayed sunflower leaf discs, 7 days incubation, read-out: activity (mortality, special effects)
Method: Example B8: Activity Against Thrips tabaci (Onion Thrips)
(Mixed Population, Feeding/Residual Contact Activity, Preventive)
as §1, with “a thrips” for “an aphid”, “7 days,” for “6 DAT,”

SMILES	mortality at 400 ppm [1] [%]	mortality at 400 ppm [4] [%]	mortality at 400 ppm [5] [%]	mortality at 400 ppm [7] [%]	also measured
CCS(=O)(=O)c1cc(OC(F)F)cnc1-c1nnc(-c2ccc(C(F)(F)F)nc2)n1C [Compound P58]	> 80	–	–	–	mortality at 24 ppm [2]: ≥ 80%; mortality at 400 ppm [3]: > 80%
CCS(=O)(=O)c1cc(C(F)(F)F)cnc1-c1nnc(-c2ccc(F)c(Cl)c2)n1C [Compound P15]	> 80	> 80	> 80	–	mortality at 12.5 ppm [6]: ≥ 80%
CCS(=O)(=O)c1cc(C(F)(F)F)cnc1-c1nnc(-c2ccc3c(c2)OC(F)(F)O3)n1C [Compound P56]	–	> 80	> 80	–	–
Cn1c(-c2cc(C(F)(F)F)ccn2)nnc1-c1ncc(C(F)(F)F)cc1S(C)(=O)=O [Compound P71]	> 80	> 80	> 80	> 80	mortality at 24 ppm [2]: ≥ 80%
CCS(=O)(=O)c1cc(C(F)(F)F)cnc1-c1nnc(-c2cccc(C(F)(F)F)c2)n1C [Compound P7]	> 80	> 80	> 80	> 80	mortality at 12.5 ppm [8]: ≥ 80%; mortality at 12.5 ppm [6]: ≥ 80%; mortality at 24 ppm [2]: ≥ 80%; mortality at 400 ppm [3]: > 80%
CCS(=O)(=O)c1cc(C(F)(F)F)cnc1-c1nnc(-c2cc(C(F)(F)F)cc(C(F)(F)F)c2)n1C [Compound P12]	–	> 80	–	> 80	–
Cn1c(-c2cc(C(F)(F)F)ccn2)nnc1-c1ncc(C(F)(F)F)cc1S(=O)(=O)CC1CC1 [Compound P72]	–	–	–	> 80	mortality at 400 ppm [9]: > 80%
CCS(=O)(=O)c1cc(C(F)(F)F)cnc1-c1nnc(-c2ccc(C(F)F)cc2)n1C [Compound P53]	> 80	–	–	–	–
CCS(=O)(=O)c1cc(C(F)(F)F)cnc1-c1nnc(-c2ccc(C#N)cc2)n1C [Compound P35]	–	–	> 80	–	mortality at 24 ppm [2]: ≥ 80%
CCS(=O)(=O)c1cc(C(F)(F)F)cnc1-c1nnc(-c2cccc(C(F)(F)Cl)c2)n1C [Compound P24]	> 80	> 80	> 80	> 80	mortality at 12.5 ppm [6]: ≥ 80%
CCS(=O)(=O)c1cc(C(F)(F)F)cnc1-c1nnc(-c2cc(C(F)(F)F)ccc2F)n1C [Compound P19]	> 80	–	–	–	–
Cn1c(-c2cc(C(F)(F)F)ccn2)nnc1-c1ncc(C(F)(F)F)cc1SCC1CC1 [Compound P76]	–	–	> 80	> 80	mortality at 400 ppm [9]: > 80%
CCS(=O)(=O)c1cc(C(F)(F)F)ccc1-c1nnc(-c2ccc(C(F)(F)F)nc2)n1C [Compound P55]	> 80	–	> 80	–	mortality at 24 ppm [2]: ≥ 80%
CCS(=O)(=O)c1cc(C(F)(F)F)cnc1-c1nnc(-c2ccnc(C(F)(F)F)c2)n1C [Compound P8]	> 80	–	–	–	mortality at 24 ppm [2]: ≥ 80%; mortality at 400 ppm [3]: > 80%
CSc1cc(C(F)(F)F)cnc1-c1nnc(-c2cc(C(F)(F)F)ccn2)n1C [Compound P70]	–	–	> 80	–	–
CCS(=O)(=O)c1cc(C(F)(F)F)cnc1-c1nnc(-c2cccc(C#N)c2)n1C [Compound P34]	> 80	–	–	–	mortality at 24 ppm [2]: ≥ 80%

SMILES	mortality at 400 ppm [1] [%]	mortality at 400 ppm [4] [%]	mortality at 400 ppm [5] [%]	mortality at 400 ppm [7] [%]	also measured
CCS(=O)(=O)c1cc(OC(F)F)cnc1-c1nnc(-c2cc(C(F)(F)F)ccn2)n1C [Compound P66]	> 80	> 80	> 80	> 80	mortality at 12.5 ppm [8]: ≥ 80%; mortality at 24 ppm [2]: ≥ 80%
CCS(=O)(=O)c1cc(C(F)(F)F)cnc1-c1nnc(-c2cccc(OC(F)(F)F)c2)n1C [Compound P20]	> 80	> 80	> 80	–	mortality at 12.5 ppm [6]: ≥ 80%
CCS(=O)(=O)c1cc(C(F)(F)F)cnc1-c1nnc(-c2ccc(C(F)(F)F)cn2)n1C [Compound P10]	–	> 80	> 80	–	–
CCS(=O)(=O)c1cc(C(F)(F)F)cnc1-c1nnc(-c2ccc(Cl)c(F)c2)n1C [Compound P22]	> 80	> 80	> 80	–	mortality at 12.5 ppm [6]: ≥ 80%
CCS(=O)(=O)c1cc(C(F)(F)F)cnc1-c1nnc(-c2ccc(OC(F)(F)F)cc2)n1C [Compound P33]	> 80	> 80	–	> 80	mortality at 12.5 ppm [8]: ≥ 80%; mortality at 12.5 ppm [6]: ≥ 80%
CCS(=O)(=O)c1cc(C(F)(F)F)cnc1-c1nnc(-c2ccc(Cl)c(Cl)c2)n1C [Compound P46]	> 80	> 80	> 80	–	–
CCS(=O)(=O)c1cc(C(F)(F)F)cnc1-c1nnc(-c2ccc(C(F)(C(F)(F)F)C(F)(F)F)cc2)n1C [Compound P21]	–	> 80	> 80	–	–
CCS(=O)(=O)c1cc(C(F)(F)F)cnc1-c1nnc(-c2cc(Cl)cc(Cl)c2)n1C [Compound P16]	> 80	> 80	> 80	–	–
CCS(=O)(=O)c1cc(C(F)(F)F)cnc1-c1nnc(-c2ccc(C(F)(F)F)c(C(F)(F)F)c2)n1C [Compound P61, 2-[5-[3,4-bis(trifluoromethyl)phenyl]-4-methyl-1,2,4-triazol-3-yl]-3-ethylsulfonyl-5-(trifluoromethyl)pyridine]	> 80	> 80	> 80	> 80	mortality at 400 ppm [3]: > 80%
CCS(=O)(=O)c1cc(C(F)(F)F)cnc1-c1nnc(-c2cc(C(F)(F)F)cc(Cl)n2)n1C [Compound P63]	–	> 80	> 80	–	–
CCSc1cc(C(F)(F)F)cnc1-c1nnc(-c2cc(C(F)(F)F)ccn2)n1CC [Compound P64]	–	> 80	> 80	–	–
CCSc1cc(C(F)(F)F)ccc1-c1nnc(-c2ccc(C(F)(F)F)nc2)n1C [Compound P54]	–	–	> 80	–	–
CCS(=O)(=O)c1cc(C(F)(F)F)cnc1-c1nnc(-c2ccc(C(F)(F)F)cc2)n1C [Compound P5]	–	> 80	> 80	> 80	mortality at 12.5 ppm [8]: ≥ 80%
CCS(=O)(=O)c1cc(C(F)(F)F)cnc1-c1nnc(-c2cccc3c2OC(F)(F)O3)n1C [Compound P30]	> 80	–	–	–	mortality at 12.5 ppm [6]: ≥ 80%
CCSc1cc(C(F)(F)F)cnc1-c1nnc(-c2cccc(C(F)(F)F)n2)n1C [Compound P49]	–	–	–	–	mortality at 400 ppm [3]: > 80%
